According to patent US6908919B2, “Substituted polycyclic aryl and heteroaryl pyrazinones useful for selective inhibition of the coagulation cascade” (Pharmacia Corporation, priority 1999, dated 2005):

Biological target: Human factor Xa (Homo sapiens, UniProt P00742)
Assay: Xa Assay
Format: biochemical
Parameters: purchased Enzyme Research Laboratories, South Bend Ind
Settings: not given

Sequence of Human factor Xa (P00742 41-179 limits assumed): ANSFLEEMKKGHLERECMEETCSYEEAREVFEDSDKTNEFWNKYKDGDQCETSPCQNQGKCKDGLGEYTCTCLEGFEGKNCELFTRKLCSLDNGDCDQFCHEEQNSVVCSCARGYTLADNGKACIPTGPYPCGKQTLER
Sequence of Human factor Xa (P00742 235-488 limits assumed): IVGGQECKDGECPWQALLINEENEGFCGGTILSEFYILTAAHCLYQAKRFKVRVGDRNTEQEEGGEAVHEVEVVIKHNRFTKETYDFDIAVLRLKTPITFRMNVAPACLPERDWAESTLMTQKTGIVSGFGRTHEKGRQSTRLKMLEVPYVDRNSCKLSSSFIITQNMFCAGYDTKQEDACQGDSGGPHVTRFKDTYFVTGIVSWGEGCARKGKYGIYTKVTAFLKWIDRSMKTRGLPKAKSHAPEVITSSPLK

SMILES	% Inhibition Factor Xa (100 µM)
O=C(Cn1c(-c2ccc(-c3ccccc3)cc2)c(Cl)nc(NCCc2ccc(Cl)cc2)c1=O)NCCc1cccnc1 [Example E-0119]	5%

Same assay, conditions: at 30 µM

SMILES	% Inhibition Factor Xa (30 µM)
CC(C)N(C)c1nc(Cl)c(-c2ccccc2)n(CC(=O)NCc2ccc(C(=N)N)cc2)c1=O [Example 1517-31]	0%
CC(C)CCNc1nc(Cl)c(-c2ccccc2)n(CC(=O)NCc2ccc(C(=N)N)cc2)c1=O [Example 1517-40]	0%
N=C(N)c1ccc(CNC(=O)Cn2c(-c3c(Cl)cccc3Cl)c(Cl)nc(NC3CCC3)c2=O)cc1 [Example 1517-12]	0%
N=C(N)c1ccc(CNC(=O)Cn2c(-c3cccc(N)c3)c(Cl)nc(NCCCCN3CCCC3)c2=O)cc1 [1543-21]	27%
C[C@@H](C(=O)NCc1ccc(C(=N)N)cc1)n1c(-c2ccccc2)c(Cl)nc(NCCc2ccccc2)c1=O [Example 1517-15]	0%
N=C(N)c1ccc(CNC(=O)Cn2c(-c3cccc(N)c3)c(Cl)nc(NCCN3CCCC3)c2=O)cc1 [1543-03]	34%
N=C(N)c1ccc(CNC(=O)Cn2c(-c3cccc(N)c3)c(Cl)nc(NCCN3CCCCC3)c2=O)cc1 [1543-15]	41%
N=C(N)c1ccc(CNC(=O)Cn2c(-c3ccccc3)c(Cl)nc(NC3CCCCC3)c2=O)cc1 [Example 1517-25]	0%
N=C(N)c1ccc(CNC(=O)Cn2c(-c3c(Cl)cccc3Cl)c(Cl)nc(NCCc3cccc(Cl)c3)c2=O)cc1 [Example 1517-24]	0%
N=C(N)c1ccc(CNC(=O)Cn2c(-c3ccsc3)c(Cl)nc(NCCc3cccc(Cl)c3)c2=O)cc1 [Example 1517-19]	0%
CCCCNc1nc(Cl)c(-c2cccc(N)c2)n(CC(=O)NCc2ccc(C(=N)N)cc2F)c1=O [1543-36]	15%
CC(CNc1nc(Cl)c(-c2cccc(N)c2)n(CC(=O)NCc2ccc(C(=N)N)cc2)c1=O)N(C)C (stereo not shown) [1543-19]	11%
C[C@H](C(=O)NCc1ccc(C(=N)N)cc1)n1c(-c2ccccc2)c(Cl)nc(NCCc2cccc(Cl)c2)c1=O [Example 1517-23]	0%
CSCC(C(=O)NCc1ccc(C(=N)N)cc1)n1c(-c2ccccc2)c(Cl)nc(NCCc2ccccc2)c1=O (stereo not shown) [Example 1517-16]	0%
CCNc1nc(Cl)c(-c2cccc(N)c2)n(CC(=O)NCc2ccc(C(=N)N)cc2F)c1=O [1543-31]	8%
CN(C)CCNc1nc(Cl)c(-c2cccc(N)c2)n(CC(=O)NCc2ccc(C(=N)N)cc2)c1=O [1543-09]	12%

Same assay, conditions: at 30 µM inhibitor

SMILES	% Inhibition Factor Xa (30 µM)
N=C(N)c1ccc(CNC(=O)Cn2c(-c3ccccc3)c(Cl)nc(NCC(c3ccccc3)c3ccccc3)c2=O)cc1 [1507-09]	13%
CCc1c(Cl)nc(NCCN2CCOCC2)c(=O)n1CC(=O)NCc1ccc(C(=N)N)cc1 [1471-60]	0%
CCc1c(Cl)nc(NCCc2cccnc2)c(=O)n1CC(=O)NCc1ccc(C(=N)N)cc1 [1471-64]	2%
CCc1c(Cl)nc(NCCc2ccc(Cl)cc2)c(=O)n1CC(=O)NCc1ccc(C(=N)N)cc1 [1471-58]	0%
N=C(N)c1ccc(CNC(=O)Cn2c(-c3ccccc3)c(Cl)nc(NCCc3ccc(Cl)cc3)c2=O)cc1 [1471-10]	45%
COc1ccc(-c2c(Cl)nc(NCCc3ccc(Cl)cc3)c(=O)n2CC(=O)NCc2ccc(C(=N)N)cc2)cc1 [1471-34]	24%
Cc1c(Cl)nc(NCCc2ccncc2)c(=O)n1CC(=O)NCc1ccc(C(=N)N)cc1 [1471-5]	12%
CCc1c(Cl)nc(NCCc2ccccc2)c(=O)n1CC(=O)NCc1ccc(C(=N)N)cc1 [1471-63]	2%
Cc1c(Cl)nc(NCCc2ccc(Cl)cc2)c(=O)n1CC(=O)NCc1ccc(C(=N)N)cc1 [1471-2]	10%
N=C(N)c1ccc(CNC(=O)Cn2c(-c3cccc4ccccc34)c(Cl)nc(NCCc3ccccc3)c2=O)cc1 [Example 80]	29% @ 30
N=C(N)c1ccc(CNC(=O)Cn2c(-c3c(Cl)cccc3Cl)c(Cl)nc(NCc3ccccc3)c2=O)cc1 [Example 1517-06]	0%
CSc1ccc(N)cc1-c1c(Cl)nc(NC(C)C)c(=O)n1CC(=O)NCc1ccc(C(=N)N)cc1 [Example 76]	0%
CC(C)Nc1nc(Cl)c(-c2cccc(C(=O)O)c2)n(CC(=O)NCc2ccc(C(=N)N)cc2)c1=O [Example 65]	12%
N=C(N)c1ccc(CNC(=O)Cn2c(-c3cccc(Cl)c3)c(Cl)nc(NCc3ccncc3)c2=O)cc1 [1471-27]	16%
N=C(N)NC/C=C\CNC(=O)Cn1c(-c2ccccc2)cnc(NCCc2ccccc2)c1=O [Example 37]	0%
N=C(N)c1ccc(CNC(=O)Cn2c(-c3ccccc3)c(Cl)nc(NC3CCCCCC3)c2=O)cc1 [1507-29]	4%
N=C(N)c1ccc(CNC(=O)Cn2c(-c3ccccc3)c(Cl)nc(NCCCn3ccnc3)c2=O)cc1 [1507-05]	10%
Cc1c(Cl)nc(NCc2ccccc2)c(=O)n1CC(=O)NCc1ccc(C(=N)N)cc1 [1471-1]	10%
N=C(N)c1ccc(CNC(=O)Cn2c(-c3ccc4c(c3)OCO4)c(Cl)nc(NCc3ccccc3)c2=O)cc1 [1471-41]	34%
N=C(N)c1ccc(CNC(=O)Cn2c(-c3ccccc3)c(Cl)nc(NCc3cc(F)c(F)c(F)c3)c2=O)cc1 [1512-32]	5%
CSCC(C(=O)NCc1ccc(C(=N)N)cc1)n1c(-c2ccccc2)c(Cl)nc(NC2CCC2)c1=O (stereo not shown) [Example 1517-10]	0%
N=C(N)c1ccc(CNC(=O)Cn2c(-c3ccc(Cl)cc3)c(Cl)nc(NCCc3cccc(Cl)c3)c2=O)cc1 [1471-22]	28%
Cc1c(Cl)nc(NCc2ccncc2)c(=O)n1CC(=O)NCc1ccc(C(=N)N)cc1 [1471-3]	0%
Nc1n[nH]c2ccc(CNC(=O)Cn3c(-c4ccccc4)cnc(NCCc4ccccc4)c3=O)cc12 [Example 38]	22%
N=C(N)c1ccc(CNC(=O)Cn2c(-c3ccccc3)c(Cl)nc(NCc3ccncc3)c2=O)cc1 [1471-11]	9%

SMILES	% Inhibition Factor Xa (30 µM)
N=C(N)c1ccc(CNC(=O)Cn2c(-c3ccccc3)c(Cl)nc(NC3CCCCCC3)c2=O)cc1 [1512-16]	10%
N=C(N)c1ccc(CNC(=O)Cn2c(-c3cccc(N)c3)c(Cl)nc(NC3CCC3)c2=O)cc1F [Example 40]	0%
N=C(N)c1ccc(CNC(=O)Cn2c(-c3cccc(Cl)c3)c(Cl)nc(NCc3ccccc3)c2=O)cc1 [Example 23]	38% @ 30
N=C(N)c1ccc(CNC(=O)Cn2c(-c3cccc(N)c3)cnc(NC3CCC3)c2=O)cc1 [Example 92]	18% @ 30
N=C(N)c1ccc(CNC(=O)Cn2c(-c3ccccc3)c(Cl)nc(NCc3ccccc3)c2=O)cc1 [1471-9]	29%
N=C(N)c1ccc(CNC(=O)Cn2c(-c3cccc(Cl)c3)c(Cl)nc(NCCc3cccc(Cl)c3)c2=O)cc1 [1471-30]	41%
N=C(N)c1ccc(CNC(=O)Cn2c(-c3cccc(Cl)c3)c(Cl)nc(NCCN3CCOCC3)c2=O)cc1 [1471-28]	8%
N=C(N)c1ccc(CNC(=O)Cn2c(-c3ccccc3)c(Cl)nc(NCc3ccccc3OC(F)(F)F)c2=O)cc1 [1512-42]	1%
N=C(N)c1ccc(CNC(=O)Cn2c(-c3ccccc3)c(Cl)nc(NCCc3ccc(Cl)c(Cl)c3)c2=O)cc1 [1507-44]	9%
N=C(N)c1ccc(CNC(=O)Cn2c(-c3cccc(N)c3)c(Cl)nc(NC3CCC3)c2=O)cc1 [Example 90]	16% @ 30
N=C(N)c1ccc(CNC(=O)Cn2c(-c3ccccc3)c(Cl)nc(NCc3ccc(Cl)cc3)c2=O)cc1 [1507-46]	8%
N=C(N)c1ccc(CNC(=O)Cn2c(-c3ccccc3)c(Cl)nc(NCCc3ccncc3)c2=O)cc1 [Example 19]	22% @ 30
N=C(N)c1ccc(CNC(=O)Cn2c(-c3ccc(Cl)cc3)c(Cl)nc(NCCc3ccccc3)c2=O)cc1 [1471-23]	36%
N=C(N)c1ccc(CNC(=O)Cn2c(-c3ccccc3)c(Cl)nc(NCCc3cccnc3)c2=O)cc1 [1471-16]	23%
N=C(N)c1ccc(CNC(=O)Cn2c(-c3ccccc3)c(Cl)nc(NCCCCc3ccccc3)c2=O)cc1 [1507-43]	21%
N=C(N)c1ccc(CNC(=O)Cn2c(-c3cccc(Cl)c3)c(Cl)nc(NCCc3cccnc3)c2=O)cc1 [1471-32]	25%
Cc1cccc(-c2c(Cl)nc(NCCc3ccccc3)c(=O)n2CC(=O)NCc2ccc(C(=N)N)cc2)c1 [Example 81]	33% @ 30
N=C(N)c1ccc(CNC(=O)Cn2c(-c3ccccc3)c(Cl)nc(NCc3cc(F)cc(F)c3)c2=O)cc1 [1512-39]	4%
CCc1c(Cl)nc(NCc2ccncc2)c(=O)n1CC(=O)NCc1ccc(C(=N)N)cc1 [1471-59]	0%
N=C(N)c1ccc(CNC(=O)Cn2c(-c3ccccc3)c(Cl)nc(NCCc3ccccn3)c2=O)cc1 [1512-47]	13%
Cc1c(N)cccc1-c1cnc(NC(C)C)c(=O)n1CC(=O)NCc1ccc(C(=N)N)cc1 [Example 98]	10% @ 30
N=C(N)c1ccc(CNC(=O)Cn2c(-c3ccccc3)c(Cl)nc(NCC3COc4ccccc4O3)c2=O)cc1 (stereo not shown) [1512-01]	4%
N=C(N)c1ccc(CNC(=O)Cn2c(-c3cccc(N)c3)c(Cl)nc(NCCc3ccccc3)c2=O)cc1 [Example 86]	26% @ 30
CC(C)Nc1ncc(-c2cccc(N)c2)n(CC(=O)NCc2ccc(C(=N)N)c(F)c2)c1=O [Example 43]	0%

Same assay, conditions: inhibitor at 100 µM

SMILES	% Inhibition Factor Xa (100 µM)
COc1ccc(-c2c(Cl)nc(NCCc3ccccc3)c(=O)n2CC(=O)NCCc2ccncc2)cc1 [Example E-0100]	6%
